We go through six molecules from ChEMBL document CHEMBL1201862, “PubChem BioAssay data set” (2004).

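Grown in 96-well plates, cells were treated for 48 hours with each compound at five concentrations. Insufficient inhibition: endpoint recorded as highest concentration tested. Here, GI50 denotes the concentration required for 50% inhibition of growth.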 Active and inactive are the calls of the source. Rule as the data show it: active = GI50 up to about 1.1 µM and inactive = higher. Some results are limits rather than exact numbers.

What all share (experiment): NCI tumour cell line growth inhibition, 48 h
In test [1] the test system is A498.
Test [2] deals with RPMI-8226.
The test system of test [3] is SNB-75.
Test [4] deals with HL-60.
In test [5] the test system is SW-620.
For test [6], the system named is HT-29.
Test [7] has as its system HCT-116.
Test [8] concerns OVCAR-5.
Test [9] deals with SN12C.
Test [10] deals with M14.
In test [11] the test system is Malme-3M.
The subject of test [12] is UACC-62.
For test [13], the system named is CAKI-1.
The subject of test [14] is SK-MEL-28.
Test [15] concerns SR.
The subject of test [16] is SK-OV-3.
For test [17], the system named is MDA-MB-231.
Test [18] relates to SK-MEL-5.
The subject of test [19] is UACC-257.
The subject of test [20] is NCI/ADR-RES.

For `C/C(=N\NC(=O)c1ccncc1)c1sc(-n2nc(-c3ccccc3)cc2-c2ccccc2)nc1C`, the GI50 is > 100 µM (inactive) in [1]; 20.7 µM (inactive) in test [2]; > 37.2 µM (inactive) in test [3]; 21.5 µM (inactive) in test [4]; > 31.6 µM (inactive) in test [5]; > 100 µM (inactive) in test [6]. The GI50 was > 31.6 µM (inactive) in test [7]; > 31.6 µM (inactive) in test [8]; > 100 µM (inactive) in test [9]; > 31.6 µM (inactive) in [10]; > 56.2 µM (inactive) in test [11]; > 31.6 µM (inactive) in [12]. Besides, the GI50 in test [13] was 98.4 µM (inactive); in test [14], > 31.6 µM (inactive); in test [15] it was 25.5 µM (inactive); in test [16], > 31.6 µM (inactive); in test [17], > 63 µM (inactive); in test [18], > 31.6 µM (inactive). The GI50 is > 31.6 µM (inactive) in test [19] and > 100 µM (inactive) in test [20].

Regarding `COc1ccc(C(=O)/C=C/S/C(=N/C#N)SC)cc1`, the GI50 in test [1] is 24.5 µM (inactive); in test [2], 4.33 µM (inactive); in test [3], 27.9 µM (inactive); in test [4] it was 16.6 µM (inactive); in test [5], 16.8 µM (inactive); in [6] it was 19.8 µM (inactive). For the same molecule, the GI50 in test [7] was 14.9 µM (inactive); in [8], 24 µM (inactive); in test [9] it was 24.4 µM (inactive); in test [10], 18.3 µM (inactive); in test [11] it was 24.5 µM (inactive); in test [12] it was 20 µM (inactive). The GI50 in test [13] was 22.9 µM (inactive); in [14], 30.2 µM (inactive); in [15] it was 3.95 µM (inactive); in [16], 26.2 µM (inactive); in [17] it was 13.7 µM (inactive); in [18], 21.8 µM (inactive). In addition, the GI50 in test [19] was 20.4 µM (inactive); in test [20], 21.3 µM (inactive).

As for `COc1cccc(C(=O)C#Cc2cnc(OC)nc2OC)c1`, the GI50 in test [1] was 8.69 µM (inactive); in test [2], 2.01 µM (inactive); in test [3], 2.26 µM (inactive); in test [4], 0.682 µM (active); in test [5] it was 0.504 µM (active); in test [6], 1.09 µM (active). Besides, the GI50 in test [7] was 3.18 µM (inactive); in [8], 2.91 µM (inactive); in test [9], 0.753 µM (active); in test [10], 1.21 µM (inactive); in test [11] it was 1.38 µM (inactive); in test [12], 1.36 µM (inactive). Moreover, the GI50 in [13] was 1.99 µM (inactive); in test [14] it was 2.04 µM (inactive); in test [15], 0.108 µM (active); in [16], 18.1 µM (inactive); in test [17], 3.41 µM (inactive); in test [18], 1.24 µM (inactive). The values for the GI50 in test [19] and in [20] were 2.15 µM (inactive) and 1.85 µM (inactive), respectively.

Take `CCCCNC(=O)OCCN=C1c2ccccc2C(Br)C(Br)c2ccccc21` (stereo not given): the GI50 in test [1] is 41.5 µM (inactive); in test [2], 22.5 µM (inactive); in test [3], 30.5 µM (inactive); in [4], 9.04 µM (inactive); in [5], 40.2 µM (inactive); in test [6] it was 12.5 µM (inactive). The GI50 was 23.3 µM (inactive) in [7]; > 100 µM (inactive) in test [8]; 32.9 µM (inactive) in [9]; 19.4 µM (inactive) in [10]; 23.3 µM (inactive) in [11]; > 100 µM (inactive) in test [12]. For the same molecule, the GI50 in [13] was 25.6 µM (inactive); in test [14], 35.4 µM (inactive); in test [15] it was 21.3 µM (inactive); in test [16], 32.1 µM (inactive); in test [17], 29.4 µM (inactive); in [18] it was 18.7 µM (inactive). Moreover, the GI50 was 26.8 µM (inactive) in test [19] and 19.9 µM (inactive) in test [20].

For `CC(C)(C)OC(=O)NC(CSSCC(NC(=O)OC(C)(C)C)C(=O)O)C(=O)O` (stereo not given), the GI50 in test [1], in [2], in [3], in test [4], in test [5] and in test [6] was > 100 µM (inactive) throughout. The GI50 in [7], in test [8], in test [9], in [10], in [11] and in test [12] was > 100 µM (inactive) each time. For the same molecule, the GI50 in test [13], in test [14], in test [15], in test [16], in test [17] and in test [18] was > 100 µM (inactive) in each case. In addition, the GI50 in [19] and in test [20] was > 100 µM (inactive) in each case.

As to `COc1cc(/C=C/C(=O)CC(=O)/C=C/c2ccc(O)c(OC)c2)ccc1O` [CURCUMIN], the GI50 in test [1] was 16 µM (inactive); in [2], 2.09 µM (inactive); in [3], 6.84 µM (inactive); in [4], 7.33 µM (inactive); in [5], 4.19 µM (inactive); in test [6], 5.09 µM (inactive). For the same molecule, the GI50 in test [7] was 2.92 µM (inactive); in [8] it was 16.6 µM (inactive); in [9], 8.41 µM (inactive); in test [10] it was 3.78 µM (inactive); in [11], 14 µM (inactive); in [12], 6.49 µM (inactive). Besides, the GI50 was 11.9 µM (inactive) in test [13]; 4.5 µM (inactive) in test [14]; 3.28 µM (inactive) in test [15]; 8.91 µM (inactive) in [16]; 17.8 µM (inactive) in test [17]; 8.81 µM (inactive) in [18]. Also, the GI50 in test [19] was 11.5 µM (inactive); in test [20], 7.26 µM (inactive).
